In patent publication US20250268903A1, “RXFP1 AGONISTS” (BRISTOL-MYERS SQUIBB COMPANY, priority 2021, published 2025):

Target: T1, human RXFP1 (Homo sapiens, UniProt Q9HBX9)
T1 construct: expressed in transfected cells
T1 sequence (Q9HBX9 1-757): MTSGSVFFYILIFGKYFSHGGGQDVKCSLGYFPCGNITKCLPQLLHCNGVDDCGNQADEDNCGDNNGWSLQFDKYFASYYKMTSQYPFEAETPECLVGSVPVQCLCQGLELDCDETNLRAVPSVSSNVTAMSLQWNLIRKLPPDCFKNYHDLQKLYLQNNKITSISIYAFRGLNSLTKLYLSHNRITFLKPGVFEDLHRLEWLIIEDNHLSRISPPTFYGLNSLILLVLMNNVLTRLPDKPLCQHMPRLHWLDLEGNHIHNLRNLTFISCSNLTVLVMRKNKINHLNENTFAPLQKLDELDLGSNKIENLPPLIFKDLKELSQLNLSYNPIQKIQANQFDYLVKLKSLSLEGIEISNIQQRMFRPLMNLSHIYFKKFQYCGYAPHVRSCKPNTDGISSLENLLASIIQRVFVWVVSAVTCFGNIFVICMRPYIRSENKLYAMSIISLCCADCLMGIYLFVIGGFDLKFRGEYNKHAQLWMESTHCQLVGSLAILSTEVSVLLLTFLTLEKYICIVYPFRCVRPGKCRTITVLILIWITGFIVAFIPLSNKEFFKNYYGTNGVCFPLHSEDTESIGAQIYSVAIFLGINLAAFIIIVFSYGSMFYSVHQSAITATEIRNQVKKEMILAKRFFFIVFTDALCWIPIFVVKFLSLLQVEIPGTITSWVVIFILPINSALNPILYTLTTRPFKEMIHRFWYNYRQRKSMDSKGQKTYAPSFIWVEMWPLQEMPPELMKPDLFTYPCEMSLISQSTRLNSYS
Test: hRXFP1 HEK293 cAMP assay (HTRF)
Assay type: cell-based
Settings: HEK293 cells stably expressing human RXFP1, 30 min at room temperature
Summary of the method: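 hRXFP1-HEK293 stable line; HBSS + Ca/Mg, 20 mM HEPES, 0.05% BSA, 0.5 mM IBMX; cpd 0.010 nM–50 μM, 2% DMSO; 30 min RT; lysis, HTRF cAMP detection; 4-PL fit.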

| SMILES | EC50 [µM] |
| --- | --- |
| COc1ccc(C(=O)NCCCO)cc1C(=O)N[C@H]1[C@@H](C(=O)Nc2ccc(F)c(C(F)(F)F)c2)[C@H]2CC[C@@H]1/C2=C\C1CC1 [Example 229, N3-[(1R,2R,3S,4R,7Z)-7-(cyclopropyl-methylidene)-3-{[4-fluoro-3-(trifluoromethyl)phenyl]carbamoyl}bicyclo[2.2.1]heptan-2-yl]-N1-(3-hydroxypropyl)-4-methoxybenzene-1,3-dicarboxamide] | 0.183 |
| COc1ccc(C(=O)N2CCC(O)CC2)cc1C(=O)N[C@H]1[C@@H](C(=O)Nc2ccc(F)c(C(F)(F)F)c2)[C@H]2CC[C@@H]1/C2=C\C1CC1 [Example 230, (1R,2S,3R,4R,7Z)-7-(cyclopropyl-methylidene)-N-[4-fluoro-3-(trifluoromethyl)phenyl]-3-[5-(4-hydroxypiperidine-1-carbonyl)-2-methoxybenzamido] bicyclo[2.2.1] heptane-2-carboxamide] | 0.026 |
| COc1ccc(C(=O)N2CCO[C@@H](CO)C2)cc1C(=O)N[C@H]1[C@@H](C(=O)Nc2ccc(F)c(C(F)(F)F)c2)[C@H]2CC[C@@H]1/C2=C\C1CC1 [Example 231, (1R,2S,3R,4R,7Z)-7-(cyclopropylmethyl-idene)-N-[4-fluoro-3-(trifluoromethyl)phenyl]-3-{5-[(2R)-2-(hydroxymethyl)morpholine-4-carbonyl]-2-methoxybenzamido} bicyclo[2.2.1] heptane-2-carboxamide] | 0.032 |
| COc1ccc(C(=O)NCC2(S(C)(=O)=O)CC2)cc1C(=O)N[C@H]1[C@@H](C(=O)Nc2ccc(F)c(C(F)(F)F)c2)[C@H]2CC[C@@H]1/C2=C\C1CC1 [Example 232, N3-[(1R,2R,3S,4R,7Z)-7-(cyclopropyl-methylidene)-3-{[4-fluoro-3-(trifluoromethyl)phenyl]carbamoyl}bicyclo[2.2.1]heptan-2-yl]-NI-[(1-methanesulfonyl-cyclopropyl)methyl]-4-methoxybenzene-1,3-dicarboxamide] | 0.00095 |
| COc1ccc(C(=O)N2CCCC(CO)C2)cc1C(=O)N[C@H]1[C@@H](C(=O)Nc2ccc(F)c(C(F)(F)F)c2)[C@H]2CC[C@@H]1/C2=C\C1CC1 (stereo partly drawn) [Example 233, (1R,2S,3R,4R,7Z)-7-(cyclopropyl-methylidene)-N-[4-fluoro-3-(trifluoromethyl)phenyl]-3-[5-[3-(hydroxymethyl)piperidine-1-carbonyl]-2-methoxybenzamido} bicyclo[2.2.1] heptane-2-carboxamide] | 0.0657 |
| COc1ccc(C(=O)N2CCCC(CO)C2)cc1C(=O)N[C@H]1[C@@H](C(=O)Nc2ccc(F)c(C(F)(F)F)c2)[C@H]2CC[C@@H]1/C2=C\C1CC1 (stereo partly drawn) [Example 234, (1R,2S,3R,4R,7Z)-7-(cyclopropyl-methylidene)-N-[4-fluoro-3-(trifluoromethyl)phenyl]-3-{5-[3-(hydroxymethyl)piperidine-1-carbonyl]-2-methoxybenzamido} bicyclo[2.2.1]heptane-2-carboxamide] | 0.0648 |
| COc1ccc(C(=O)N2CCCC(CO)C2)cc1C(=O)N[C@H]1[C@@H](C(=O)Nc2ccc(F)c(C(F)(F)F)c2)[C@H]2CC[C@@H]1/C2=C\C1CC1 (stereo partly drawn) [Example 235, (1R,2S,3R,4R,7Z)-7-(cyclopropylmethyl-idene)-N-[4-fluoro-3-(trifluoromethyl)phenyl]-3-{5-[3-(hydroxymethyl)piperidine-1-carbonyl]-2-methoxybenzamido} bicyclo[2.2.1] heptane-2-carboxamide] | 0.13 |
| COc1ccc(C(=O)N2CC(C)(C)C2)cc1C(=O)N[C@H]1[C@@H](C(=O)Nc2ccc(F)c(C(F)(F)F)c2)[C@H]2CC[C@@H]1/C2=C\C1CC1 [Example 237] | 0.0413 |
| COc1ccc(C(=O)NCC(C)(C)C)cc1C(=O)N[C@H]1[C@@H](C(=O)Nc2ccc(F)c(C(F)(F)F)c2)[C@H]2CC[C@@H]1/C2=C\C1CC1 [Example 238, N3-[(1R,2R,3S,4R,7Z)-7-(cyclopropyl-methylidene)-3-{[4-fluoro-3-(trifluoromethyl)phenyl]carbamoyl}bicyclo[2.2.1]heptan-2-yl]-N1-(2,2-dimethylpropyl)-4-methoxybenzene-1,3-dicarboxamide] | 0.014 |
| COc1ccc(C(=O)NC(C)(C)CO)cc1C(=O)N[C@H]1[C@@H](C(=O)Nc2ccc(F)c(C(F)(F)F)c2)[C@H]2CC[C@@H]1/C2=C\C1CC1 [Example 239, N3-[(1R,2R,3S,4R,7Z)-7-(cyclopropyl-methylidene)-3-{[4-fluoro-3-(trifluoromethyl)phenyl]carbamoyl}bicyclo[2.2.1]heptan-2-yl]-N1-(1-hydroxy-2-methylpropan-2-yl)-4-methoxybenzene-1,3-dicarboxamide] | 0.0278 |

The remaining lines, values ahead:

| EC50 [µM] | SMILES |
| --- | --- |
| 0.0849 | COc1ccc(S(=O)(=O)N2CCS(=O)(=O)CC2)cc1C(=O)N[C@H]1[C@@H](C(=O)Nc2ccc(F)c(C(F)(F)F)c2)[C@H]2CC[C@@H]1/C2=C\C1CC1 [Example 222, (1R,2S,3R,4R,7Z)-7-(cyclopropylmethylidene)-3-{5-[(1,1-dioxo-1λ^6-thiomorpholin-4-yl)sulfonyl]-2-methoxybenzamido}-N-[4-fluoro-3-(trifluoromethyl)phenyl]bicyclo[2.2.1] heptane-2-carboxamide] |
| 0.145 | COc1ccc(S(=O)(=O)N2CCN3C(=O)CCC3C2)cc1C(=O)N[C@H]1[C@@H](C(=O)Nc2ccc(F)c(C(F)(F)F)c2)[C@H]2CC[C@@H]1/C2=C\C1CC1 (stereo partly drawn) [Example 223, (1R,2S,3R,4R,7Z)-7-(cyclopropyl-methylidene)-N-[4-fluoro-3-(trifluoromethyl)phenyl]-3-[2-methoxy-5-({6-oxo-octahydropyrrolo[1,2-a]piperazin-2-yl}sulfonyl)benzamido] bicyclo[2.2.1] heptane-2-carboxamide] |
| 0.0803 | COc1ccc(S(=O)(=O)N2CCOC[C@H]2CO)cc1C(=O)N[C@H]1[C@@H](C(=O)Nc2ccc(F)c(C(F)(F)F)c2)[C@H]2CC[C@@H]1/C2=C\C1CC1 [Example 224, (1R,2S,3R,4R,7Z)-7-(cyclopropylmethyl-idene)-N-[4-fluoro-3-(trifluoromethyl)phenyl]-3-(5-{[(3R)-3-(hydroxymethyl)morpholin-4-yl]sulfonyl}-2-methoxybenzamido) bicyclo[2.2.1] heptane-2-carboxamide] |
| 4.27 | COc1ccc(S(=O)(=O)N2CCN(C(=O)OC(C)(C)C)[C@H](CO)C2)cc1C(=O)N[C@H]1[C@@H](C(=O)Nc2ccc(F)c(C(F)(F)F)c2)[C@H]2CC[C@@H]1/C2=C\C(F)(F)F [Example 225, tert-butyl (2S)-4-(3-{[(1R,2R,3S,4R,7Z)-3-{[4-fluoro-3-(trifluoromethyl)phenyl]carbamoyl}-7-(2,2,2-trifluoroethylidene)bicyclo[2.2.1]heptan-2-yl]carbamoyl}-4-methoxy-benzenesulfonyl-2-(hydroxymethyl)piperazine-1-carboxylate] |
| 1.73 | COc1ccc(S(=O)(=O)N2CCN(C(=O)OC(C)(C)C)[C@@H](CO)C2)cc1C(=O)N[C@H]1[C@@H](C(=O)Nc2ccc(F)c(C(F)(F)F)c2)[C@H]2CC[C@@H]1/C2=C\C(F)(F)F [Example 226, tert-butyl (2R)-4-(3-{[(1R,2R,3S,4R,7Z)-3-{[4-fluoro-3-(trifluoromethyl)phenyl]carbamoyl}-7-(2,2,2-trifluoroethylidene)bicyclo[2.2.1]heptan-2-yl]carbamoyl}-4-methoxy-benzenesulfonyl)-2-(hydroxymethyl) piperazine-1-carboxylate] |
| 0.0772 | COc1ccc(C(=O)OC(C)(C)C)cc1C(=O)N[C@H]1[C@@H](C(=O)Nc2ccc(F)c(C(F)(F)F)c2)[C@H]2CC[C@@H]1/C2=C\C1CC1 [Example 227] |
| 0.234 | COc1ccc(C(=O)NC(C)(C)C)cc1C(=O)N[C@H]1[C@@H](C(=O)Nc2ccc(F)c(C(F)(F)F)c2)[C@H]2CC[C@@H]1/C2=C\C1CC1 [Example 236, N1-tert-butyl-N3-[(1R,2R,3S,4R,7Z)-7-(cyclopropyl-methylidene)-3-{[4-fluoro-3-(trifluoromethyl)phenyl]carbamoyl}bicyclo[2.2.1]heptan-2-yl]-4-methoxybenzene-1,3-dicarboxamide] |
| 0.0531 | COc1ccc(C(=O)NCC(C)(C)O)cc1C(=O)N[C@H]1[C@@H](C(=O)Nc2ccc(F)c(C(F)(F)F)c2)[C@H]2CC[C@@H]1/C2=C\C1CC1 [Example 240, N3-[(1R,2R,3S,4R,7Z)-7-(cyclopropyl-methylidene)-3-{[4-fluoro-3-(trifluoromethyl)phenyl]carbamoyl}bicyclo[2.2.1]heptan-2-yl]-N1-(2-hydroxy-2-methylpropyl)-4-methoxybenzene-1,3-dicarboxamide] |
